Laboratory results from US12024707B2, “Methods and compositions for modulating lncRNAs and methods of treatment based on lncRNA expression” (Washington University, priority 2020, dated 2024).
Counter-ions that a name gives are not always drawn.

Test system: HT29 RAMS11 overexpressing cells
Assay: High-throughput viability assay (resazurin), 119 FDA-approved anticancer drugs, RAMS11 overexpressing cells (Clone1, Clone2)
Conditions: 72 h, vs empty vector control
[1] = OE1 (RAMS11 overexpression clone 1), 0.1 uM drug
[2] = OE1 (RAMS11 overexpression clone 1), 1 uM drug
[3] = OE1 (RAMS11 overexpression clone 1), 10 uM drug
[4] = OE2 (RAMS11 overexpression clone 2), 0.1 uM drug
[5] = OE2 (RAMS11 overexpression clone 2), 1 uM drug
[6] = OE2 (RAMS11 overexpression clone 2), 10 uM drug

Row | SMILES | Viability Fold Change [1] | Viability Fold Change [2] | Viability Fold Change [3] | Viability Fold Change [4] | Viability Fold Change [5] | Viability Fold Change [6]
1 | CO[C@H]1C[C@@H]2CC[C@@H](C)[C@@](O)(O2)C(=O)C(=O)N2CCCC[C@H]2C(=O)O[C@H]([C@H](C)C[C@@H]2CC[C@@H](OCCO)[C@H](OC)C2)CC(=O)[C@H](C)/C=C(\C)[C@@H](O)[C@@H](OC)C(=O)[C@H](C)C[C@H](C)/C=C/C=C/C=C/1C [Everolimus] | 0.6419 | 0.7474 | 0.6863 | 0.6484 | 0.7943 | 0.721
2 | C=C1C[C@@H]2[C@H](CC[C@]3(C)C(=O)CC[C@@H]23)[C@@]2(C)C=CC(=O)C=C12 [Exemestane] | 0.8651 | 0.981 | 0.9176 | 1.047 | 1.008 | 1.06
3 | Nc1nc(F)nc2c1ncn2[C@@H]1O[C@H](CO)[C@@H](O)[C@@H]1O [Fludarabine] | 0.869 | 0.9921 | 1.056 | 0.973 | 1.069 | 1.073
4 | C[C@]12CC[C@@H]3c4ccc(O)cc4C[C@@H](CCCCCCCCC[S+]([O-])CCCC(F)(F)C(F)(F)F)[C@H]3[C@@H]1CC[C@@H]2O (stereo partly drawn) [Fulvestrant] | 1.048 | 1.037 | 1.135 | 1.088 | 1.089 | 1.036
5 | COc1cc2ncnc(Nc3ccc(F)c(Cl)c3)c2cc1OCCCN1CCOCC1 [Gefitinib] | 0.9453 | 1.164 | 1.468 | 0.9436 | 1.227 | 1.392
6 | NC(=O)NO [Hydroxyurea] | 0.9496 | 0.9632 | 0.9723 | 0.9871 | 1.074 | 0.9675
7 | CC(=O)[C@]1(O)Cc2c(O)c3c(c(O)c2[C@@H](O[C@H]2C[C@H](N)[C@H](O)[C@H](C)O2)C1)C(=O)c1ccccc1C3=O [Idarubicin hydrochloride] | 1.365 | 1.73 | 3.603 | 1.573 | 1.623 | 3.696
8 | CC[C@H](Nc1ncnc2[nH]cnc12)c1nc2cccc(F)c2c(=O)n1-c1ccccc1 [Idelalisib] | 0.9092 | 0.8875 | 0.9111 | 0.9773 | 0.8852 | 0.8746
9 | O=P1(NCCCl)OCCCN1CCCl (stereo not drawn) [Ifosfamide] | 0.9167 | 1.025 | 0.9724 | 0.9226 | 1.055 | 1.058
10 | CC(C)Cn1cnc2c(N)nc3ccccc3c21 [Imiquimod] | 1.048 | 1.101 | 1.03 | 1.037 | 1.138 | 0.9752
11 | CCc1c2c(nc3ccc(OC(=O)N4CCC(N5CCCCC5)CC4)cc13)-c1cc3c(c(=O)n1C2)COC(=O)[C@]3(O)CC [Irinotecan HCl] | 0.9198 | 0.9608 | 1.151 | 0.9682 | 0.9711 | 1.068
12 | C/C(=C\c1csc(C)n1)[C@@H]1C[C@@H]2O[C@]2(C)CCC[C@H](C)[C@H](O)[C@@H](C)C(=O)C(C)(C)[C@@H](O)CC(=O)N1 [Ixabepilone] | 1.657 | 1.943 | 1.722 | 1.773 | 2.017 | 2.056
13 | CS(=O)(=O)CCNCc1ccc(-c2ccc3ncnc(Nc4ccc(OCc5cccc(F)c5)c(Cl)c4)c3c2)o1 [Lapatinib] | 1.034 | 1.269 | 1.357 | 1.216 | 1.285 | 1.391
14 | Nc1cccc2c1CN(C1CCC(=O)NC1=O)C2=O (stereo not drawn) [Lenalidomide] | 0.9659 | 1.021 | 0.9664 | 0.9115 | 1.009 | 0.8902
15 | N#Cc1ccc(C(c2ccc(C#N)cc2)n2cncn2)cc1 [Letrozole] | 0.9923 | 0.9536 | 0.9791 | 0.9454 | 1.057 | 0.8412
16 | O=NN(CCCl)C(=O)NC1CCCCC1 [Lomustine] | 0.9969 | 1.03 | 1.027 | 0.991 | 1.111 | 0.9646
17 | CC(=O)O[C@]1(C(C)=O)CC[C@H]2[C@@H]3C=C(C)C4=CC(=O)CC[C@]4(C)[C@H]3CC[C@@]21C [Megestrol acetate] | 0.8922 | 1.034 | 0.9961 | 0.8949 | 0.9578 | 0.9016
18 | N[C@@H](Cc1ccc(N(CCCl)CCCl)cc1)C(=O)O [Melphalan] | 0.9214 | 1.006 | 0.9782 | 0.9479 | 1.068 | 0.9942
19 | S=c1nc[nH]c2nc[nH]c12 [Mercaptopurine] | 0.964 | 0.9982 | 1.006 | 0.9412 | 1.029 | 1.05
20 | CN(Cc1cnc2nc(N)nc(N)c2n1)c1ccc(C(=O)N[C@@H](CCC(=O)O)C(=O)O)cc1 [Methotrexate] | 0.9199 | 0.5578 | 1.197 | 0.9143 | 0.5752 | 1.137
21 | COc1c2occc2cc2ccc(=O)oc12 [Methoxsalen] | 0.9521 | 0.971 | 0.7883 | 0.8888 | 0.9485 | 0.9406
22 | CO[C@@]12[C@H](COC(N)=O)C3=C(C(=O)C(C)=C(N)C3=O)N1C[C@@H]1N[C@@H]12 [Mitomycin] | 0.9668 | 1.547 | 2.416 | 1.006 | 1.624 | 2.004
23 | Clc1ccc(C(c2ccccc2Cl)C(Cl)Cl)cc1 (stereo not drawn) [Mitotane] | 0.8185 | 0.9667 | 0.9105 | 0.9482 | 0.9714 | 0.987
24 | O=C1c2c(O)ccc(O)c2C(=O)c2c(NCCNCCO)ccc(NCCNCCO)c21 [Mitoxantrone] | 1.145 | 1.451 | 1.375 | 1.105 | 1.432 | 1.508
25 | COc1nc(N)nc2c1ncn2[C@@H]1O[C@H](CO)[C@@H](O)[C@@H]1O [Nelarabine] | 0.9819 | 1.033 | 0.9555 | 0.9462 | 1.007 | 0.9701
26 | Cc1cn(-c2cc(NC(=O)c3ccc(C)c(Nc4nccc(-c5cccnc5)n4)c3)cc(C(F)(F)F)c2)cn1 [Nilotinib] | 0.8679 | 0.749 | 0.7379 | 1.013 | 0.888 | 0.7462
27 | O=C(c1cc(Cc2n[nH]c(=O)c3ccccc23)ccc1F)N1CCN(C(=O)C2CC2)CC1 [Olaparib] | 0.8162 | 0.9061 | 1 | 0.9035 | 0.952 | 0.9733
28 | COC(=O)C[C@](O)(CCCC(C)(C)O)C(=O)O[C@@H]1C(OC)=C[C@]23CCCN2CCc2cc4c(cc2[C@H]13)OCO4 [Omacetaxine mepesuccinate] | 1.354 | 1.614 | 1.606 | 1.376 | 1.468 | 1.436
29 | CC(=O)O[C@H]1C(=O)[C@@]2(C)[C@H]([C@H](OC(=O)c3ccccc3)[C@]3(O)C[C@H](OC(=O)[C@H](O)[C@@H](NC(=O)c4ccccc4)c4ccccc4)C(C)=C1C3(C)C)[C@]1(OC(C)=O)CO[C@@H]1C[C@@H]2O [Paclitaxel] | 2.775 | 3.5 | 3.241 | 2.662 | 3.065 | 3.061
